Assay results as given in paper PMC3025325, “Identification of a κ-opioid agonist as a potent and selective lead for drug development against human African trypanosomiasis” (Biochemical Pharmacology, 2010).
Structures can show the parent of a compound that is named as a salt. Where two headings read alike, the source gives them in different places.

Experiments:
MRC5 cells = assay: Resazurin cell viability counter-screen, EC50 determinations against mammalian cells; format: cell-based, human
[1] = system: bloodstream forms of Trypanosoma brucei; assay: Resazurin cell viability assay, EC50 determinations against T. brucei; format: cell-based, T. b. brucei (strain 427)
[2] = Homo sapiens, MRC5, 72 h, read-out: EC50 vs. MRC5
[3] = Trypanosoma brucei, 72 h, read-out: EC50 vs. T. brucei
[4] = Homo sapiens, MRC5, 72 h, 3 days incubation, mean of 4 determinations weighted to standard error, read-out: EC50 vs. MRC5
[5] = Trypanosoma brucei, 72 h, LOPAC hits (library screening), 3 days incubation, mean of 3 determinations weighted to standard error, read-out: EC50 vs. T. brucei
[6] = Trypanosoma brucei, 72 h, LOPAC hits, 3 days incubation, mean of 3 determinations weighted to standard error, read-out: EC50 vs. T. brucei
[7] = Trypanosoma brucei, 72 h, read-out: EC50 of standard drugs against T. brucei
[8] = read-out: EC50 of standard drugs against T. brucei

Molecule	Selectivity (MRC5 cells)	EC50 [1, 3] [nM]	also measured
CCn1cnc2c(Nc3cccc(Cl)c3)nc(N[C@@H]3CCCC[C@@H]3N)nc21.Cl (relative stereo) [CGP-74514A, N^2-(cis-2-Aminocyclohexyl)-N^6-(3-chlorophenyl)-9-ethyl-9H-purine-2,6-diamine HCl]	7.1	210 ± 8.3	EC50 (MRC5 cells; [2]): 1500 ± 620 nM
NC[C@@H]1O[C@H](C23CC4CC(CC(C4)C2)C3)Cc2c1ccc(O)c2O (single isomer, unassigned; (-)) [A-77636 hydrochloride]			EC50 ([1]; read-out: EC50 vs. T. brucei): 2210 ± 150 nM
Nc1ncnc2c1nc(Sc1ccc(Cl)cc1)n2C1OC2COP(=O)(O)O[C@H]2C1O (stereo in doubt) [8-(4-Chlorophenylthio)-cAMP sodium]	44		
N=C(N)SCCc1cccc(CCSC(=N)N)c1 [1,3-PBIT dihydrobromide, Phenylene-1,3-bis(ethane-2-isothiourea) dihydrobromide]			EC50 ([1]; read-out: EC50 vs. T. brucei): 1580 ± 80 nM
Nc1ccn([C@H]2CC[C@@H](CO)O2)c(=O)n1 [2′,3′-Dideoxycytidine]		> 10000	
O=C(O)c1cc[c]([Hg][Cl])cc1 [4-Chloromercuribenzoic acid]	27		EC50 ([1]; read-out: EC50 vs. T. brucei): 690 ± 85 nM
COc1cc2c(CCNC(C)=O)c[nH]c2cc1O [6-Hydroxymelatonin]			EC50 ([1]; read-out: EC50 vs. T. brucei): 3310 ± 230 nM
Nc1ncnc2c1nc(Sc1ccc(Cl)cc1)n2[C@H]1OC2COP(=O)(O)O[C@H]2[C@@H]1O (stereo partly shown) [8-(4-Chlorophenylthio)-cAMP sodium]			EC50 ([1]; read-out: EC50 vs. T. brucei): 400 ± 54 nM
CCCn1c(=O)c2[nH]c(C3CCCC3)nc2n(CCC)c1=O [8-Cyclopentyl-1,3-dipropylxanthine]	31	530 ± 53	
CC[C@@]1(O)C(=O)OCc2c1cc1n(c2=O)Cc2cc3ccccc3nc2-1 [(S)-(+)-Camptothecin]	1.5		EC50 (MRC5 cells; read-out: EC50 vs. MRC5): 800 ± 99 nM; EC50 ([1]; read-out: EC50 vs. T. brucei): 530 ± 13 nM
O=C1Cc2c([nH]c3ccc([N+](=O)[O-])cc23)-c2ccccc2N1 [Alsterpaullone]	1.3	400 ± 40	EC50 (MRC5 cells; [2]): 510 ± 170 nM
CC1(C)CCC2=C(O1)c1ccccc1C(=O)C2=O [Beta-Lapachone]	10	850 ± 130	EC50 (MRC5 cells; [2]): 8600 ± 2900 nM
C=CCc1ccccc1OCC(O)CNC1(C)CCC(C(C)(C)NC(=O)CBr)CC1 (stereo not shown) [Bromoacetyl alprenolol menthane]		1260 ± 140	
NC(=O)c1cc(N2CC2)c([N+](=O)[O-])cc1[N+](=O)[O-] [CB 1954, 5-(1-Aziridinyl)-2,4-dinitrobenzamide]		1080 ± 90	
Nc1nc2ccc(Cl)cc2c2nc(-c3ccco3)nn12 [CGS-15943, 9-Chloro-2-(2-furyl)[1,2,4]triazolo[1,5-c]quinazolin-5-amine]		1970 ± 210	
O=C(/C=C/c1ccc(O)c(O)c1)OCCc1ccccc1 [Caffeic acid phenethyl ester]		1640 ± 130	
CNc1ccc2oc(C[C@H]3O[C@@]4(CC[C@H]3C)O[C@H]([C@H](C)C(=O)c3ccc[nH]3)[C@H](C)C[C@H]4C)nc2c1C(=O)O [Calcimycin]	4.2	180 ± 13	EC50 (MRC5 cells; [2]): 750 ± 140 nM
Clc1ccc(C(c2ccc(Cl)cc2)n2cc[n+](CC(OCc3ccc(Cl)cc3Cl)c3ccc(Cl)cc3Cl)c2)cc1 (stereo not shown) [Calmidazolium chloride]	13	510 ± 66	EC50 (MRC5 cells; [2]): 6600 ± 750 nM
COc1ccc2c(c[n+](C)c3c4cc5c(cc4ccc23)OCO5)c1OC [Chelerythrine chloride]	42		EC50 (MRC5 cells; [4]): 2500 ± 480 nM; EC50 [1, 5]: 59 ± 5.7 nM
CN(N=O)c1cc(O)ccc1O [Dephostatin]		> 10000	
Cc1cc(N)c2ccccc2[n+]1CCCCCCCCCC[n+]1c(C)cc(N)c2ccccc21 [Dequalinium dichloride]	140	43 ± 8.8	Selectivity / specificity for T. brucei over human fibroblasts (MRC5 cells): greater than 100 fold; EC50 (MRC5 cells; [2]): 6100 ± 1500 nM
CC(C)[C@@]1(NC(=O)[C@@H]2C[C@@H]3c4cccc5[nH]cc(c45)C[C@H]3N(C)C2)O[C@@]2(O)[C@@H]3CCCN3C(=O)[C@H](Cc3ccccc3)N2C1=O.CS(=O)(=O)O [Dihydroergocristine methanesulfonate]	23		EC50 ([1]; read-out: EC50 vs. T. brucei): 890 ± 57 nM
c1ccc2c(c1)[I+]c1ccccc1-2 [Diphenyleneiodonium chloride]	5.7	120 ± 7.6	EC50 (MRC5 cells; [2]): 700 ± 870 nM
CCCN(CCC)CCc1ccc(O)c(O)c1 [Dipropyldopamine hydrobromide]		1290 ± 60	

Molecule	Selectivity (MRC5 cells)	EC50 [1, 3] [nM]	also measured
COc1cccc2c1C(=O)c1c(O)c3c(c(O)c1C2=O)C[C@@](O)(C(=O)CO)C[C@@H]3O[C@H]1C[C@H](N)[C@H](O)[C@H](C)O1 [Doxorubicin]			EC50 (MRC5 cells; Homo sapiens, MRC5, 72 h, read-out: EC50 against MRC5 (control drug)): 85.9 ± 38.2 nM
Cc1c2ccncc2c(C)c2c1[nH]c1ccccc12 [Ellipticine]	3.7		EC50 (MRC5 cells; [4]): 1700 ± 620 nM; EC50 [1, 5]: 460 ± 45 nM
CC[C@H]1CN2CCc3cc(OC)c(OC)cc3[C@@H]2C[C@@H]1C[C@H]1NCCc2cc(OC)c(OC)cc21 [Emetine dihydrochloride hydrate]			EC50 (MRC5 cells; [4]): 30 ± 3.1 nM; EC50 [1, 5]: 7.9 ± 0.53 nM
CC(=O)[C@]1(O)Cc2c(O)c3c(c(O)c2[C@@H](O[C@H]2C[C@H](N)[C@H](O)[C@H](C)O2)C1)C(=O)c1ccccc1C3=O [Idarubicin]	3.9	20 ± 1.5	EC50 (MRC5 cells; [2]): 78 ± 29 nM
O=C1Nc2ccccc2/C1=C1/Nc2ccccc2/C1=N\O [Indirubin-3′-oxime]			EC50 ([1]; read-out: EC50 vs. T. brucei): 1280 ± 90 nM
O=C1Cc2c([nH]c3ccc(Br)cc23)-c2ccccc2N1 [Kenpaullone]		1860 ± 270	
CC[C@H](C)C(=O)O[C@H]1CCC=C2C=C[C@H](C)[C@H](CC[C@@H]3C[C@@H](O)CC(=O)O3)[C@H]21 [Mevastatin]	2.2		EC50 (MRC5 cells; [2]): 2000 ± 360 nM; EC50 [1, 5]: 940 ± 50 nM
O=C1c2c(O)ccc(O)c2C(=O)c2c(NCCNCCO)ccc(NCCNCCO)c21 [Mitoxantrone]	46	2.4 ± 0.2	EC50 (MRC5 cells; [2]): 110 ± 37 nM
O=C1CC[C@@]2(O)[C@H]3Cc4ccc(O)c5c4[C@@]2(CCN3CC2CC2)[C@H]1O5 [Naltrexone]			EC50 ([1]; Trypanosoma brucei, read-out: EC50 of opioid receptor ligands against T. brucei): > 100000 nM
C=C1C(=O)O[C@H]2[C@H]1CC/C(C)=C/CC[C@@]1(C)O[C@@H]21 [Parthenolide]			EC50 [1, 6]: 1060 ± 80 nM
O=c1[nH]c2ccccc2n1C1CCN(CCCC(c2ccc(F)cc2)c2ccc(F)cc2)CC1 [Pimozide]	41	340 ± 19	
CC(C)[C@H](CO)Nc1nc(Nc2cccc(Cl)c2)c2ncn(C(C)C)c2n1 [Purvalanol A]	12	820 ± 55	
CCN(CC)CCCC(C)Nc1c2ccc(Cl)cc2nc2ccc(OC)cc12 (stereo not shown) [Quinacrine dihydrochloride]	5.0	380 ± 13	EC50 (MRC5 cells; [2]): 1900 ± 440 nM
CCCN1CCc2cccc3c2[C@H]1Cc1ccc(O)c(O)c1-3 [R(−)-Propylnorapomorphine hydrochloride]			EC50 ([1]; read-out: EC50 vs. T. brucei): 1520 ± 210 nM
CC1=C(/C=C/C(C)=C/C=C/C(C)=C/C(=O)Nc2ccc(O)cc2)C(C)(C)CCC1 [Retinoic acid p-hydroxyanilide]			EC50 ([1]; read-out: EC50 vs. T. brucei): 2230 ± 270 nM
O=[N+]([O-])c1ccc(CSc2ncnc3c2ncn3[C@@H]2O[C@H](CO)[C@@H](O)[C@H]2O)cc1 [S-(4-Nitrobenzyl)-6-thioinosine]		3780 ± 550	
[N-]=[N+]=Nc1ccc(C(=O)CSC[C@H](NC(=O)CC[C@H](N)C(=O)O)C(=O)NCC(=O)O)cc1 [S-(p-Azidophenacyl)glutathione]			EC50 ([1]; read-out: EC50 vs. T. brucei): > 10000 nM
Cc1nc(-c2ccc(-c3ccc(C(=O)N4CCc5cc6c(cc54)C4(CCN(C)CC4)CO6)cc3)c(C)c2)no1 [SB 224289 hydrochloride, 1′-Methyl-5-([2′-methyl-4′-(5-methyl-1,2,4-oxadiazol-3-yl)biphenyl-4-yl]carbonyl)-2,3,6,7-tetrahydro-spiro(furo[2,3-f]indole-3,4′-piperidine)]			EC50 [1, 6]: 1350 ± 280 nM
Br.CN1Cc2sccc2C(c2ccc(O)c(O)c2)C1 (stereo not shown) [SKF 89145 hydrobromide, 4-(3,4-Dihydroxyphenyl)-6-methyl-4,5,6,7-tetrahydrothieno[2,3-c]pyridine HBr]	4.7	610 ± 44	EC50 (MRC5 cells; [2]): 2900 ± 200 nM
C[n+]1cc2c3c(ccc2c2ccc4cc5c(cc4c21)OCO5)OCO3 [Sanguinarine chloride]	5.8	240 ± 17	EC50 (MRC5 cells; [2]): 1400 ± 350 nM
Nc1nc(N)nc(Nc2ccc([As]3SCC(CO)S3)cc2)n1 (stereo not shown) [melarsoprol]			EC50 [1, 7]: 7.52 ± 0.28 nM; EC50 [1, 8]: 8 nM
CC1CS(=O)(=O)CCN1/N=C/c1ccc([N+](=O)[O-])o1 (stereo not shown) [nifurtimox]			EC50 [1, 7]: 1800 nM; EC50 [1, 8]: 1810 ± 130 nM
Buprenorphine			Activity against T. brucei (in words) [1]: weak activity
